Data on six compounds can be found in article PMC9130746, “In Vitro Activity of Peptide Antibiotics in Combination With Other Antimicrobials on Extensively Drug-Resistant Acinetobacter baumannii in the Planktonic and Biofilm Cell” (Frontiers in Pharmacology, 2022).

Type in all cases: cell-based, Acinetobacter baumannii
Test [1] deals with extensively drug-resistant A. baumannii clinical isolates (planktonic cell). The test can be described thus: microbe, parasite or virus in culture. The source says:
(§1) Nine XDRAB strains were isolated from clinical specimens such as the septum, urine, or respiratory lavage fluid of patients from the respiratory intensive care unit, intensive care unit, the cardiothoracic surgery department, and the neurology department at the First Affiliated Hospital of Chengdu Medical College during the period from 2018 to 2020 (Chengdu, Sichuan, China). In addition, A. baumannii ATCC 19606, Staphylococcus aureus ATCC 29213, and Escherichia coli ATCC 25922 were used as quality control strains in antimicrobial susceptibility testing (AST) and obtained from the American Type Culture Collection (ATCC, Manassas, VA, United States).
The minimum inhibitory concentrations (MICs) were determined by the broth microdilution method for the antibacterial agents and peptide antibiotics for A. baumannii based on the guidelines provided by the Clinical and Laboratory Standards Institute (CLSI) ([Humphries et al., 2021]). Briefly, bacterial cells were inoculated in Luria–Bertani agar medium at 37°C for 16–20 h, and then resuspended in saline (0.9% sodium chloride) to adjust the bacterial content to reach the 0.5 McFarland turbidity standard, followed by a 20-fold dilution. Antimicrobial solutions were prepared according to the CLSI ([Humphries et al., 2021]). Finally, 180 μl CAMHB, 10 µl corresponding antimicrobials, and 10 µl bacterial resuspension were added into 96-well plate (NEST TC, 701001, www.cell-nest.com). The value of OD600 was measured after incubating at 37°C for 16–20 h.

Test [2] has as its system extensively drug-resistant A. baumannii clinical isolates (biofilm cell).
Text: as §1
The minimum biofilm inhibitory concentrations (MBICs) were detected using a previous study protocol ([Kart et al., 2021]) for the antibacterial agents and peptide antibiotics for A. baumannii in the biofilm cell. First, bacterial cells were inoculated in Luria–Bertani agar medium at 37°C for 16–20 h. Next, the bacterial monoclones were resuspended in saline (0.9% sodium chloride) to adjust the bacterial content to reach the 0.5 McFarland turbidity standard. Then, 190 µl TSB and 10 µl bacterial resuspension were mixed in a 96-well plate. After incubating at 37°C for 24 h, the medium was aspirated, and 200 µl PBS was added to wash three times. Finally, 190 μl MH broth medium and 10 µl corresponding antibiotics were added into 96-well plate (NEST TC, 701001, www.cell-nest.com). The optical density was measured at OD600 after incubating for 16–20 h at 37°C.

Test [3] deals with extensively drug-resistant A. baumannii isolates (biofilm cell). The test can be described thus: Checkerboard synergy study in the biofilm cell (FBIC). The settings on record: in combination with polymyxins. Here is the method:
The checkerboard method, the fractional inhibitory concentration index (FICI), and the fractional biofilm inhibitory concentration index (FBIC) evaluated the synergistic effects of five peptide antibiotics combined with one of the five antimicrobials in the planktonic and biofilm cells among the nine XDRAB isolates. The planktonic cells were investigated by adding 170 µl of MHB and 10 µl of bacterial suspension (1.5 × 10^8 CFU/ml) into the 96 well plates. It was followed by adding 10 µl of serially diluted peptide antibiotics along the x-axis and antimicrobials along the y-axis. The biofilm cells were studied by cultivating the bacteria to form the biofilm into a 96-well plate (NEST TC, 701001, www.cell-nest.com) and washed with 200 µl of PBS three times. The following steps were consistent with the planktonic study. The value of OD600 was measured after incubating at 37°C for 20 h. The FICI and FBIC were evaluated as follows: Synergy between the two drugs was defined as either a FICI or an FBIC of ≤0.5, >0.5–1 for additivity, >1–2 for indifference, and >2 for antagonism ([Kim et al., 2015]; [Peng et al., 2020]; [Lin et al., 2021]).

The mark [4] stands for this setting: isolate AB3, planktonic, broth microdilution, CAMHB, 37°C 16–20 h, OD600.
[5] abbreviates: isolate AB4, planktonic, broth microdilution, CAMHB, 37°C 16–20 h, OD600.
The mark [6] stands for this setting: isolate AB5, planktonic, broth microdilution, CAMHB, 37°C 16–20 h, OD600.
Where [7] appears, read: isolate AB6, planktonic, broth microdilution, CAMHB, 37°C 16–20 h, OD600.
Where [8] appears, read: isolate AB8, planktonic, broth microdilution, CAMHB, 37°C 16–20 h, OD600.
[9] abbreviates: isolate AB9, planktonic, broth microdilution, CAMHB, 37°C 16–20 h, OD600.
[10] abbreviates: isolate AB1, planktonic, broth microdilution, CAMHB, 37°C 16–20 h, OD600.
Setting [11] is: isolate AB2, planktonic, broth microdilution, CAMHB, 37°C 16–20 h, OD600.
Where [12] appears, read: isolate AB7, planktonic, broth microdilution, CAMHB, 37°C 16–20 h, OD600.
Where [13] appears, read: isolate AB2, 24 h biofilm in TSB, then MH broth with drug 16–20 h 37°C, OD600.
Setting [14] is: isolate AB3, 24 h biofilm in TSB, then MH broth with drug 16–20 h 37°C, OD600.
The mark [15] stands for this setting: isolate AB6, 24 h biofilm in TSB, then MH broth with drug 16–20 h 37°C, OD600.
The mark [16] stands for this setting: isolate AB9, 24 h biofilm in TSB, then MH broth with drug 16–20 h 37°C, OD600.
[17] abbreviates: isolate AB1, 24 h biofilm in TSB, then MH broth with drug 16–20 h 37°C, OD600.
The mark [18] stands for this setting: isolate AB4, 24 h biofilm in TSB, then MH broth with drug 16–20 h 37°C, OD600.
Where [19] appears, read: isolate AB5, 24 h biofilm in TSB, then MH broth with drug 16–20 h 37°C, OD600.
Where [20] appears, read: isolate AB7, 24 h biofilm in TSB, then MH broth with drug 16–20 h 37°C, OD600.
The mark [21] stands for this setting: isolate AB8, 24 h biofilm in TSB, then MH broth with drug 16–20 h 37°C, OD600.

In brackets after ≈: the same amount, converted by molar mass. Like-named read-outs stand apart in the source and are kept apart here. Bridge positions count the residues as written; N and C are the ends. Square brackets hold non-standard residues; d marks the D form. Peptide text beside a SMILES is read from it. * marks the point of attachment. Ileψ(thiazoline)Cys = CC[C@H](C)[C@H](N)C1=N[C@H](C(=O)*)CS1; dOrn = NCCC[C@@H](N)C(=O)O; X1 = CC[C@H](C)CCCCC(=O)*; Dab = NCC[C@H](N)C(=O)O

Consider `CC[C@H](C)[C@H](N)C1=N[C@H](C(=O)N[C@@H](CC(C)C)C(=O)N[C@H](CCC(=O)O)C(=O)N[C@H](C(=O)N[C@H]2CCCCNC(=O)[C@H](CC(N)=O)NC(=O)[C@@H](CC(=O)O)NC(=O)[C@H](Cc3cnc[nH]3)NC(=O)[C@@H](Cc3ccccc3)NC(=O)[C@H]([C@@H](C)CC)NC(=O)[C@@H](CCCN)NC2=O)[C@@H](C)CC)CS1` [Bacitracin, bacitracin] ({Ileψ(thiazoline)Cys}-L[dE]IK[dOrn]I[dF]H[dD]N; lactam 4-C (inferred); N-terminus assumed), for which the MIC in test [1] was determined as 64 µg/mL (≈ 45 µM); in test [1] (setting [4]) it was 128 µg/mL (≈ 90 µM); in test [1] (setting [5]) it was 128 µg/mL (≈ 90 µM); in test [1] (setting [6]) it was 128 µg/mL (≈ 90 µM); in test [1] (setting [7]), 128 µg/mL (≈ 90 µM); in test [1] (setting [8]), 128 µg/mL (≈ 90 µM). The same compound yielded an MIC in test [1] (setting [9]) of 128 µg/mL (≈ 90 µM). The same compound showed an MBIC in test [2] (extensively drug-resistant clinical isolates (biofilm cell, 24 h)) of 256 µg/mL.

For the compound teicoplanin, the MIC in test [1] (setting [10]) came out at 64 µg/mL; in test [1] (setting [11]) it was 64 µg/mL; in test [1] (setting [4]) it was 32 µg/mL; in test [1] (setting [5]), 32 µg/mL; in test [1] (setting [6]), 64 µg/mL; in test [1] (setting [7]) it was 32 µg/mL. Moreover, the MIC amounted to 128 µg/mL in test [1] (setting [12]), 32 µg/mL in test [1] (setting [8]) and 64 µg/mL in test [1] (setting [9]). In addition, the MBIC in test [2] (setting [13]), in test [2] (setting [14]), in test [2] (setting [15]) and in test [2] (setting [16]) was 64 µg/mL throughout.

`CC[C@H](C)CCCCC(=O)N[C@@H](CCN)C(=O)N[C@H](C(=O)N[C@@H](CCN)C(=O)N[C@H]1CCNC(=O)[C@H]([C@@H](C)O)NC(=O)[C@H](CCN)NC(=O)[C@H](CCN)NC(=O)[C@H](CC(C)C)NC(=O)[C@@H](Cc2ccccc2)NC(=O)[C@H](CCN)NC1=O)[C@@H](C)O` [Polymyxin B, polymyxin B] (X1-[Dab]T[Dab][Dab][Dab][dF]L[Dab][Dab]T; lactam 4-C (inferred); N-terminus assumed): the MIC in test [1] (setting [10]) is 2 µg/mL (≈ 1.66 µM); in test [1] (setting [11]) it was 1 µg/mL (≈ 0.831 µM); in test [1] (setting [4]) it was 1 µg/mL (≈ 0.831 µM); in test [1] (setting [5]), 2 µg/mL (≈ 1.66 µM); in test [1] (setting [6]), 2 µg/mL (≈ 1.66 µM); in test [1] (setting [7]) it was 1 µg/mL (≈ 0.831 µM). Moreover, the MIC in test [1] (setting [12]), in test [1] (setting [8]) and in test [1] (setting [9]) was 2 µg/mL (≈ 1.66 µM) throughout. Moreover, the MBIC in test [2] (setting [17]) amounted to 16 µg/mL; in test [2] (setting [13]) it was 16 µg/mL; in test [2] (setting [14]), 8 µg/mL; in test [2] (setting [18]), 8 µg/mL; in test [2] (setting [19]), 16 µg/mL; in test [2] (setting [15]), 16 µg/mL. The MBIC in test [2] (setting [20]), in test [2] (setting [21]) and in test [2] (setting [16]) was 8 µg/mL each time.

Regarding `CN[C@H](CC(C)C)C(=O)N[C@H]1C(=O)N[C@@H](CC(N)=O)C(=O)N[C@H]2C(=O)N[C@H]3C(=O)N[C@H](C(=O)N[C@H](C(=O)O)c4cc(O)cc(O)c4-c4cc3ccc4O)[C@H](O)c3ccc(c(Cl)c3)Oc3cc2cc(c3O[C@@H]2O[C@H](CO)[C@@H](O)[C@H](O)[C@H]2O[C@H]2C[C@](C)(N)[C@H](O)[C@H](C)O2)Oc2ccc(cc2Cl)[C@H]1O` [Vancomycin, vancomycin], the MIC in test [1] (setting [10]) worked out at 64 µg/mL (≈ 44.2 µM); in test [1] (setting [11]), 64 µg/mL (≈ 44.2 µM); in test [1] (setting [4]) it was 128 µg/mL (≈ 88.3 µM); in test [1] (setting [5]), 64 µg/mL (≈ 44.2 µM); in test [1] (setting [6]) it was 128 µg/mL (≈ 88.3 µM); in test [1] (setting [7]), 128 µg/mL (≈ 88.3 µM). Also, the MIC in test [1] (setting [12]) is 128 µg/mL (≈ 88.3 µM); in test [1] (setting [8]), 64 µg/mL (≈ 44.2 µM); in test [1] (setting [9]), 128 µg/mL (≈ 88.3 µM). The MBIC amounted to 256 µg/mL in test [2] (setting [17]); 128 µg/mL in test [2] (setting [13]); 128 µg/mL in test [2] (setting [14]); 128 µg/mL in test [2] (setting [18]); 256 µg/mL in test [2] (setting [19]); 256 µg/mL in test [2] (setting [15]). In addition, the MBIC in test [2] (setting [20]), in test [2] (setting [21]) and in test [2] (setting [16]) was 128 µg/mL each time.

For the compound polymyxin E, the MIC in test [1] (setting [10]) was determined as 2 µg/mL; in test [1] (setting [11]), 1 µg/mL; in test [1] (setting [4]), 1 µg/mL; in test [1] (setting [5]) it was 2 µg/mL; in test [1] (setting [6]) it was 2 µg/mL; in test [1] (setting [7]) it was 1 µg/mL. The MIC in test [1] (setting [12]), in test [1] (setting [8]) and in test [1] (setting [9]) was 2 µg/mL each time. In addition, the MBIC in test [2] (setting [17]) was 16 µg/mL; in test [2] (setting [13]) it was 8 µg/mL; in test [2] (setting [14]) it was 4 µg/mL; in test [2] (setting [18]) it was 4 µg/mL; in test [2] (setting [19]), 8 µg/mL; in test [2] (setting [15]), 8 µg/mL. The MBIC in test [2] (setting [20]) amounted to 8 µg/mL; in test [2] (setting [21]), 4 µg/mL; in test [2] (setting [16]) it was 8 µg/mL.

`CC[C@H]1OC(=O)[C@H](C)[C@@H](O[C@H]2C[C@@](C)(OC)[C@@H](O)[C@H](C)O2)[C@H](C)[C@@H](O[C@@H]2O[C@H](C)C[C@H](N(C)C)[C@H]2O)[C@](C)(O)C[C@@H](C)CN(C)[C@H](C)[C@@H](O)[C@]1(C)O` [azithromycin]: in test [3], the “MBIC when combined with polymyxins” value came out at 128 µg/mL.
